Experimental data from PubChem BioAssay (NCI).
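Values below derive from 48-hour exposures of cells grown in 96-well plates, with endpoints linearly interpolated between the two concentrations bracketing the appropriate inhibition level. GI50 marks 50% less growth. The concentration for full growth arrest is given as TGI.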

Key:
Assay in all cases: NCI-60 cell line screen, 48 h
[1] = test system: TK-10 renal
[2] = test system: U251 CNS
[3] = test system: PC-3 prostate
[4] = test system: SW-620 colon
[5] = test system: CCRF-CEM leukemia
[6] = test system: HCT-116 colon
[7] = test system: A498 renal
[8] = test system: T-47D breast
[9] = test system: SK-MEL-5 melanoma
[10] = test system: 786-0 renal
[11] = test system: LOX IMVI melanoma
[12] = test system: HCT-15 colon
[13] = test system: OVCAR-3 ovarian
[14] = test system: NCI-H226 lung

Compound | TGI [1] [µM] | TGI [2] [µM] | TGI [3] [µM] | TGI [4] [µM] | TGI [5] [µM] | TGI [6] [µM] | TGI [7] [µM] | TGI [8] [µM] | TGI [9] [µM] | TGI [10] [µM] | TGI [11] [µM] | TGI [12] [µM] | TGI [13] [µM] | TGI [14] [µM] | GI50 [1] [µM] | GI50 [3] [µM] | GI50 [4] [µM] | GI50 [7] [µM] | GI50 [9] [µM] | GI50 [12] [µM]
C(=N\c1nc2cc3sc(/N=C/c4ccccc4)nc3cc2s1)/c1ccccc1 | > 100 | > 100 | > 100 | > 100 | 42 | > 100 | > 100 | > 100 | > 100 | > 100 | > 100 | > 100 | > 100 | > 74 |  |  |  |  |  | 
FC1(F)ON2CCc3ccccc3C2[C@H]1c1ccccc1 (some centres not stated) | > 100 | > 100 | > 100 | > 100 | > 100 | > 100 | > 100 | > 100 | > 100 | 96.7 | > 100 | > 100 | > 100 | > 100 | > 100 | > 100 | > 100 | > 100 | > 100 | > 100
C#CC1(O)CCC2[C@@H]3CCc4cc(Oc5nc(F)nc(-c6c(C)c(C(=O)OCC)n7ccccc67)n5)ccc4C3CC[C@@]21C (some centres not stated) | > 100 | > 100 | > 100 | > 100 | > 100 | > 100 | > 100 | > 100 | > 100 | > 100 | > 100 | > 100 | > 100 | > 100 |  |  |  |  |  | 
COc1ccc(C2SCC(=O)N2c2ccc(-n3c(-c4ccccc4)nc4ccccc4c3=O)cc2)cc1 (configuration not stated) | > 100 | > 100 | > 100 | > 100 | > 100 | > 100 | > 100 | > 100 | > 100 | > 100 | > 100 | > 100 | > 100 | > 100 |  |  |  |  |  | 
Nc1ncnc2c1ncn2[C@H]1C=C[C@@H](NO)C1 | > 100 | > 100 | > 100 | > 100 | > 100 | > 100 | > 100 | > 100 | > 100 | > 100 | > 100 | > 100 | > 100 | > 100 |  |  |  |  |  | 
C=C1C2CCC3C4(C)CCCC(C)(C(=O)O)C4CCC3(C2)C1OC(=O)/C(C)=C/C (configuration not stated) | > 100 | > 100 | > 100 | > 100 | > 100 | > 100 | 60.4 | > 100 | 75.6 | > 100 | > 100 | 61.6 | 41 | > 100 |  |  |  |  |  | 
C[C@H](Nc1nc(N)c(N=O)c(=O)n1C)C(=O)O | > 10 | > 10 | > 10 | > 10 | > 10 | > 10 | > 10 | > 10 | > 10 | > 10 | > 10 | > 10 | > 10 | > 10 |  |  |  |  |  | 
Cc1ccc2nc3ccccc3c(C3C4C(=O)N(c5ccc(F)cc5)C(=O)C4ON3C(C(N)=O)c3ccccc3)c2c1 (configuration not stated) | > 100 | > 100 | > 100 | > 100 | > 100 | > 100 | > 100 | > 100 |  | > 100 | > 100 | > 100 | 71.6 | > 100 |  |  |  |  |  | 
